From ChEMBL document CHEMBL1201862, “PubChem BioAssay data set” (2004)
Each block holds one compound with its values, some of them ahead of it. Calls of active or inactive are those of the source.

What was measured:
[1] = (§1) Counterscreen for antagonists of the orexin 1 receptor (OX1R; HCRTR1): Fluorescence-based cell-based high throughput dose response assay to identify antagonists of the parental CHO cell line. [Related pubchem assays (depositor defined):AID434989, AID435008, AID463079, AID485270, AID492963, AID492964, AID492965, AID493232, AID504699, AID504701]; format: functional
[2] = tested on: CHO-K1; test: as §1, with “Homogeneous time resolved fluorescence (HTRF)-based” for “Fluorescence-based”, “cell-based” for “cell-based high throughput”, “CHO-K1” for “CHO”; format: functional; conditions: Cricetulus griseus;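 also: potency for inhibition of ATP-stimulated IP1 production as antagonists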
[3] = biological target: T1, Orexin/Hypocretin receptor type 1 (Homo sapiens, UniProt O43613); test: (§2) Fluorescence-based cell-based high throughput dose response assay for antagonists of the orexin 1 receptor (OX1R; HCRTR1). [Related pubchem assays (depositor defined):AID434989, AID435008, AID463079, AID485270, AID492963, AID492964, AID492965, AID493232, AID504717, AID504718]; format: functional
T1 sequence (O43613 whole entry): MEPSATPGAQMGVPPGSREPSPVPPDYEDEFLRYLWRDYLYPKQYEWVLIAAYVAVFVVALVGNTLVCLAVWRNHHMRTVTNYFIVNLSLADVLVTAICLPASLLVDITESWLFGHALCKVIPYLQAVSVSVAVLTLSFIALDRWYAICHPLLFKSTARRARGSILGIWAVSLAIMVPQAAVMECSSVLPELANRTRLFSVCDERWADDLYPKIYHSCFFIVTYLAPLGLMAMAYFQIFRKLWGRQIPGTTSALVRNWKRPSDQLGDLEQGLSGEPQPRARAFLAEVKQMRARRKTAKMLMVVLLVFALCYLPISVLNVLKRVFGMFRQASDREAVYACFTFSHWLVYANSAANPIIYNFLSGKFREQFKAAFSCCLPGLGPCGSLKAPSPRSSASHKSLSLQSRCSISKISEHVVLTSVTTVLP

[4] = biological target: T1, Orexin/Hypocretin receptor type 1; test: as §2, with “Homogeneous Time Resolved Fluorescence (HTRF)-based” for “Fluorescence-based”; format: functional
[5] = biological target: T2, Orexin receptor type 2 (Homo sapiens, UniProt O43614); test: Counterscreen assay for antagonists of the orexin 1 receptor (OX1R; HCRTR1): Fluorescence-based cell-based dose response assay for antagonists of the orexin 2 receptor (OX2R; HCRTR2), run by assay provider.; format: functional
T2 sequence (O43614 whole entry): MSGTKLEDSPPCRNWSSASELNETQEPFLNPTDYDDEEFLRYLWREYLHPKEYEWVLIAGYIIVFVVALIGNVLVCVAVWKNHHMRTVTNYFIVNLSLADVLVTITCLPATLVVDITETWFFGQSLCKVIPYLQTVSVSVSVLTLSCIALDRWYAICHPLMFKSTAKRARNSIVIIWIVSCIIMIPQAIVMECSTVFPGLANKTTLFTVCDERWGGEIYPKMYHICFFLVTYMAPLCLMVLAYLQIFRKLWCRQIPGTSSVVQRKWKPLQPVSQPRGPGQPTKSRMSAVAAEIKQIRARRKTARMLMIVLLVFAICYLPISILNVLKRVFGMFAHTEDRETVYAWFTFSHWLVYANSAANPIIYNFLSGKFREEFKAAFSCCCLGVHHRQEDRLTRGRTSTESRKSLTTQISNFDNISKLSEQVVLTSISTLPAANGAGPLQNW

[6] = biological target: T2, Orexin receptor type 2; test: Counterscreen assay for antagonists of the orexin 1 receptor (OX1R; HCRTR1): Homogeneous Time Resolved Fluorescence (HTRF)-based cell-based dose response assay for antagonists of the orexin 2 receptor (OX2R; HCRTR2), run by assay provider.; format: functional
[7] = biological target: T3, CAAX prenyl protease 2 (Saccharomyces cerevisiae S288c, UniProt Q03530); format: biochemical
T3 sequence (Q03530 whole entry): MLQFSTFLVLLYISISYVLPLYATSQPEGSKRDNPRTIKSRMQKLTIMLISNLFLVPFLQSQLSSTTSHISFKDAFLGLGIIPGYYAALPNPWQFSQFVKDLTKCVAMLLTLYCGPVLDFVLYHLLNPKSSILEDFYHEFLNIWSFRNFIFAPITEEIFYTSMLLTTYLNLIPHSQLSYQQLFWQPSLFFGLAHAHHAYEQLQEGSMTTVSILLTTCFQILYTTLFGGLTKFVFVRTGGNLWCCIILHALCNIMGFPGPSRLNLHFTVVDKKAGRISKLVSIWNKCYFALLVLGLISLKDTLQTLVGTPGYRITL

[8] = toxicity toward cultured mammalian cells – cell-based, plate reader, cherry-pick samples, cytotoxicity control, dose response (AID 504397); format: functional
[9] = biological target: T4, Mu-type opioid receptor (Homo sapiens, UniProt P35372); test: HTS Image-Based Screen for Agonists of the MOR Receptor. [Related pubchem assays (depositor defined):AID1777, AID1785, AID1786, AID2133]; format: functional
T4 sequence (P35372 whole entry): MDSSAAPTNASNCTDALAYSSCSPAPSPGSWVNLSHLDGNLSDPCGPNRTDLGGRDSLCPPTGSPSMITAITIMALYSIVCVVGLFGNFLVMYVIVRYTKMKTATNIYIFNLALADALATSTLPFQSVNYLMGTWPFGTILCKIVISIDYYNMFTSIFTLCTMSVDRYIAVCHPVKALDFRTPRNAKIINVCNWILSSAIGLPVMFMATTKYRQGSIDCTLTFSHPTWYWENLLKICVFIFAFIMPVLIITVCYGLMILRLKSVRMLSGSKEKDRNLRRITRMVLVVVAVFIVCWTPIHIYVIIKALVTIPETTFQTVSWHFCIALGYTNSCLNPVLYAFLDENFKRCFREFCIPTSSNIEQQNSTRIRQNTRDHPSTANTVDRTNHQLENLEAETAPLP

[10] = biological target: T5, Delta-type opioid receptor (Homo sapiens, UniProt P41143); test: SAR Analysis of Antagonists of the DOR Receptor using an Image-Based Assay - Set 3. [Related pubchem assays (depositor defined):AID1777, AID1785]; format: functional
T5 sequence (P41143 whole entry): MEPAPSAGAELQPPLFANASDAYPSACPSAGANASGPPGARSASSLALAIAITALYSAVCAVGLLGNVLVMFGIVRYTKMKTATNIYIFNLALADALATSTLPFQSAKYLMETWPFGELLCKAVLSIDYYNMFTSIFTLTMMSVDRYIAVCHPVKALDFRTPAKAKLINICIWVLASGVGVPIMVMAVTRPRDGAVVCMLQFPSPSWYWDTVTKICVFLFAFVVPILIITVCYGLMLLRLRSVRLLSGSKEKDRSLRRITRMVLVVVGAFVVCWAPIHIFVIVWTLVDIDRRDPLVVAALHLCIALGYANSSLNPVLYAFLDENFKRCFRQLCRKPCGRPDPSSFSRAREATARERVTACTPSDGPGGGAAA

[11] = biological target: Beta-galactosidase (Escherichia coli, UniProt Q8VNN2); format: functional
Sequence of Beta-galactosidase (Q8VNN2 whole entry): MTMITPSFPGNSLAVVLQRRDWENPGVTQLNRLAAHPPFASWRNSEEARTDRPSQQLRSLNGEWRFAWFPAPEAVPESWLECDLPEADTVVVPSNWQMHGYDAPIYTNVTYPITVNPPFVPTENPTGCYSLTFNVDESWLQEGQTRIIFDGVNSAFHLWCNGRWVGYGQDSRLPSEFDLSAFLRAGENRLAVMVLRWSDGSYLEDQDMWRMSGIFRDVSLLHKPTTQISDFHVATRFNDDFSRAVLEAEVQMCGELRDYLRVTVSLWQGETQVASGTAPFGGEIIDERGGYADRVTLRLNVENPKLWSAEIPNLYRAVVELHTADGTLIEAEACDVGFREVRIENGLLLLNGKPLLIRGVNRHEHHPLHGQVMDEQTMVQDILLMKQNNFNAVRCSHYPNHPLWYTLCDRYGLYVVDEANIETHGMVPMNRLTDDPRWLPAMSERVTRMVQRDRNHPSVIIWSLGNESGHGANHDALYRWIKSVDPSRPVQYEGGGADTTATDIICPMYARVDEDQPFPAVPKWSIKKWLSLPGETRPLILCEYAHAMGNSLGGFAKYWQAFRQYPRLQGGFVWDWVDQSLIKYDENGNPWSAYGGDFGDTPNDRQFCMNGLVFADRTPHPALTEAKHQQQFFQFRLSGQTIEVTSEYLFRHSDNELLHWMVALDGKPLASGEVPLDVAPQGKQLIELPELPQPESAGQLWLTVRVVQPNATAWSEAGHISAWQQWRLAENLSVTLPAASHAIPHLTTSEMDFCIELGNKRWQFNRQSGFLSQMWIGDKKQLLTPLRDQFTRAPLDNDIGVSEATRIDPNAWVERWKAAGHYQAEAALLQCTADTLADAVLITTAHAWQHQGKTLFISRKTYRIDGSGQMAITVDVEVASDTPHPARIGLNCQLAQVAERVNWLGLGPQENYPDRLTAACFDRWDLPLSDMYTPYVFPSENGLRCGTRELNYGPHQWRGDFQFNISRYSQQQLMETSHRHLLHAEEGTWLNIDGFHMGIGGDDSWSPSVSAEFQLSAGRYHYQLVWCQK

[12] = biological target: T5, Delta-type opioid receptor; test: HTS Image-Based Screen for Antagonists of the DOR Receptor. [Related pubchem assays (depositor defined):AID1777, AID1785, AID1786, AID2133]; format: functional
[13] = biological target: T4, Mu-type opioid receptor; test: mu opioid receptor blockers – image-based, SAR follow-up (AID 2420); format: functional;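 also: compounds added before stimulation of receptor with agonist DAMGO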
[14] = biological target: T5, Delta-type opioid receptor; test: DOR agonists, SAR follow-up, image-based (AID 2370); format: functional
[15] = biological target: T4, Mu-type opioid receptor; test: SAR Analysis of Antagonists of the MOR Receptor using an Image-Based Assay - Set 3. [Related pubchem assays (depositor defined):AID1777, AID1785, AID1786, AID1966, AID2133, AID2136, AID2284, AID2285, AID2420]; format: functional
[16] = biological target: T5, Delta-type opioid receptor; test: delta opioid receptor blockers – image-based, SAR follow-up (AID 2357); format: functional
[17] = biological target: T5, Delta-type opioid receptor; test: HTS Image-Based Screen for Agonists of the DOR Receptor. [Related pubchem assays (depositor defined):AID1777, AID1786, AID2133]; format: functional
[18] = biological target: T4, Mu-type opioid receptor; test: mu opioid receptor activators, image-based, SAR follow-up (AID 2352); format: functional
[19] = biological target: T6, Runt-related transcription factor 1/Core-binding factor subunit beta (Homo sapiens, UniProt Q01196+Q13951); test: disruptors of Runt domain/CBFb-SMMHC interaction – biochemical, FRET, Cerulean-Runt, Venus-CBFb-SMMHC, uHTS, […] (AID 1434); format: protein assay
T6 sequence (Q01196 whole entry, the tested form may be a part): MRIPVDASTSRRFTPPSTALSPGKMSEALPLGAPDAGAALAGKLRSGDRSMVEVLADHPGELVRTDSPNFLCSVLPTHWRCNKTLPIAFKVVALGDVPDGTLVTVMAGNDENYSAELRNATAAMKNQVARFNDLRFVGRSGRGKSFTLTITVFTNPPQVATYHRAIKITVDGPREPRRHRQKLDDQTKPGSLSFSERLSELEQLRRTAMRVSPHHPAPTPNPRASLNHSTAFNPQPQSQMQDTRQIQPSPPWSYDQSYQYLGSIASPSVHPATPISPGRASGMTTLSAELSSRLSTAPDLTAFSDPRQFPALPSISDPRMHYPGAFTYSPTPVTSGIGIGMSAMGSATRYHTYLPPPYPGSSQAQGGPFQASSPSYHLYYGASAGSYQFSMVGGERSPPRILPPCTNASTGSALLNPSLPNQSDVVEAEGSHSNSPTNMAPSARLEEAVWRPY
T6 sequence (Q13951 whole entry, the tested form may be a part): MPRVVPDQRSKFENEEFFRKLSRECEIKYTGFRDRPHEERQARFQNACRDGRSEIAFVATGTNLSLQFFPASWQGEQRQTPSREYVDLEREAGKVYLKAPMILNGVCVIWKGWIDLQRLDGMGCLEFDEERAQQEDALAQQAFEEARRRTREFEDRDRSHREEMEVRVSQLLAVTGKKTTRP

[20] = biological target: T6, Runt-related transcription factor 1/Core-binding factor subunit beta; test: Runt domain/CBFb-SMMHC interaction disruptors – biochemical, TR-FRET (AID 1438); format: protein assay
[21] = NIH-3T3 fibroblast cytotoxicity, dose response, cytotoxicity control, cell-based, fluorescence, Alamar Blue, secondary assay (AID 2327); format: functional;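 also: NIH-3T3 mouse fibroblasts cultured with fluconazole at 8 µg/mL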
[22] = biological target: Tyrosine-protein phosphatase non-receptor type 12 (Homo sapiens, UniProt Q05209); test: SAR Selectivity Analysis of small molecule inhibitors of PEST using pCAP in a fluorescence assay. [Related pubchem assays (depositor defined):AID1779, AID1784, AID2135]; format: functional
Sequence of Tyrosine-protein phosphatase non-receptor type 12 (Q05209 whole entry): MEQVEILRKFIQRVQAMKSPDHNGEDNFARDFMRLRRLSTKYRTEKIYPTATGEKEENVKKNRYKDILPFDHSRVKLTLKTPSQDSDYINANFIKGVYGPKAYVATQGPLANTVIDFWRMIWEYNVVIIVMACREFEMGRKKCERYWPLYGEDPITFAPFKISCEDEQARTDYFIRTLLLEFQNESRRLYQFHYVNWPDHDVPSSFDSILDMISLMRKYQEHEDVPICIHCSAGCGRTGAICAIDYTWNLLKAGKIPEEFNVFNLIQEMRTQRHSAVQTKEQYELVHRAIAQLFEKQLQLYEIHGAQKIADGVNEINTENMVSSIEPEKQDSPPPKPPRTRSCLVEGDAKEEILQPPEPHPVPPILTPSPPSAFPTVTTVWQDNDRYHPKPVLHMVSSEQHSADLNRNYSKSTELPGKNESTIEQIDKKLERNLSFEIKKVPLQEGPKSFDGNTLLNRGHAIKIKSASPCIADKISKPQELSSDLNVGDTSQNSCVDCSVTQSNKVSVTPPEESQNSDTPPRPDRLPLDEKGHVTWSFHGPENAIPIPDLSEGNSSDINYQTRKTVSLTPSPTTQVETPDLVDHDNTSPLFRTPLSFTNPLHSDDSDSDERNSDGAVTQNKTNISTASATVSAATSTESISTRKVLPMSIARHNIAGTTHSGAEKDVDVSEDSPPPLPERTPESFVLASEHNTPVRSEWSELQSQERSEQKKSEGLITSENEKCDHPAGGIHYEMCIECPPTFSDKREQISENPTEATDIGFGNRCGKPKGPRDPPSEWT

[23] = biological target: T7, Tyrosine-protein phosphatase non-receptor type 22 (Homo sapiens, UniProt Q9Y2R2); test: inhibition of lymphoid tyrosine phosphatase LYP – biochemical, pCAP fluorogenic substrate, fluorescence, set 3, SAR follow-up (AID 449727); format: functional
T7 sequence (Q9Y2R2 whole entry): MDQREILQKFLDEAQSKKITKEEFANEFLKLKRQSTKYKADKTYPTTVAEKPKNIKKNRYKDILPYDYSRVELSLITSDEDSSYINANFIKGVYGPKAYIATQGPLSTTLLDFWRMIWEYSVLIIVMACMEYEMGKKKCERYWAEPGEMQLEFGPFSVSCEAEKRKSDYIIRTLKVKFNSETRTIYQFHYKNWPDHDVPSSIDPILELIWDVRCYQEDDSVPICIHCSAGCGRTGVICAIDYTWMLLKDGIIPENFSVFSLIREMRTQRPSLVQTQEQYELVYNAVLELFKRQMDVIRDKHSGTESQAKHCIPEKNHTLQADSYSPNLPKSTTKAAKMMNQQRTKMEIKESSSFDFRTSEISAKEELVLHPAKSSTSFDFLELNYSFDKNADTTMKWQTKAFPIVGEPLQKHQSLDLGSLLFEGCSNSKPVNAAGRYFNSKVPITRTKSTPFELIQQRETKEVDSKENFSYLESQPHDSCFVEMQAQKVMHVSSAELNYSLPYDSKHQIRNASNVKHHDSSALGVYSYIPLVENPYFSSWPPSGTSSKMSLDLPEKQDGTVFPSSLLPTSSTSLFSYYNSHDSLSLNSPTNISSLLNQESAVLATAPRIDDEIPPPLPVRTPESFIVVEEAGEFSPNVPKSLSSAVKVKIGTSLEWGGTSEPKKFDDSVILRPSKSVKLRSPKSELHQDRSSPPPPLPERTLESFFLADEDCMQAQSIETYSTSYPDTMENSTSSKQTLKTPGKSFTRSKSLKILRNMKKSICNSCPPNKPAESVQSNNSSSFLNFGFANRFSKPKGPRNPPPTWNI

[24] = biological target: T7, Tyrosine-protein phosphatase non-receptor type 22; test: SAR LYP1 Fluorescent Assay using pCAP substrate for In Vitro dose response studies - Set 2. [Related pubchem assays (depositor defined):AID1779, AID1784, AID2135, AID449727]; format: functional
[25] = biological target: T8, Tyrosine-protein phosphatase non-receptor type 7 (Homo sapiens, UniProt P35236); test: inhibition of hematopoietic tyrosine phosphatase HePTP – biochemical, set 2, SAR follow-up (AID 449736); format: functional
T8 sequence (P35236 whole entry): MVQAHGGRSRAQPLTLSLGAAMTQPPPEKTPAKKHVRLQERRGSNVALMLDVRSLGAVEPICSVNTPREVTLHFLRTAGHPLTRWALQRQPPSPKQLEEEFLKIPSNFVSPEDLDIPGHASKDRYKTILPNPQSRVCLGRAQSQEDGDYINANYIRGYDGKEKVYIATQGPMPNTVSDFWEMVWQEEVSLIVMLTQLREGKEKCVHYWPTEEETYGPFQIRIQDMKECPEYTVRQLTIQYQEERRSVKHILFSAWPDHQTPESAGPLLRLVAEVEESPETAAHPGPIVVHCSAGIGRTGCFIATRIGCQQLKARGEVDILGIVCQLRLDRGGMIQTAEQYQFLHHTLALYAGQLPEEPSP

[26] = biological target: T7, Tyrosine-protein phosphatase non-receptor type 22; test: SAR LYP1 Fluorescent Assay using OMFP substrate for In Vitro dose response studies - Set 3. [Related pubchem assays (depositor defined):AID1779, AID1784, AID2140, AID2686]; format: functional
[27] = biological target: T7, Tyrosine-protein phosphatase non-receptor type 22; test: SAR LYP1 Fluorescent Assay using OMFP substrate for In Vitro dose response studies - Set 2. [Related pubchem assays (depositor defined):AID1779, AID1784, AID2140, AID449726, AID488869]; format: functional

SMILES: CSc1cccc(N2CC(C(=O)NCCN3C(=O)S/C(=C\c4cccnc4)C3=O)CC2=O)c1 (configuration not stated)
IC50 [1]: > 49.8 µM (inactive)
IC50 [2]: 10.5 µM (inactive)
IC50 [3]: 3.1 µM (active)
IC50 [4]: 0.354 µM (active)
IC50 [5]: 20.6 µM (inactive)
IC50 [6]: > 50 µM (inactive)

SMILES: O=C(c1cn(-c2ccccc2)nc1-c1cccs1)N1CCN(c2ccccn2)CC1
AC50 [7]: 3.87 µM (active)
AC50 [8]: > 350 µM (inactive)

EC50 [9]: > 32 µM (inactive)
IC50 [10]: > 32 µM (inactive)
EC50 [11]: > 31.5 µM (inactive)
IC50 [12]: > 32 µM (inactive)
IC50 [13]: > 32 µM (inactive)
EC50 [14]: > 32 µM (inactive)
IC50 [15]: 14 µM (inactive)
IC50 [16]: > 32 µM (inactive)
EC50 [17]: > 32 µM (inactive)
EC50 [18]: > 32 µM (inactive)
SMILES: Cc1ccc(S(=O)(=O)NCc2ccc(C(=O)NCCN(Cc3ccccc3)C(C)C)cc2)cc1

SMILES: O=C(CN1CCN(c2ccc(O)cc2)CC1)NC(c1ccccc1)c1ccccc1
IC50 [19]: > 100 µM (inactive)
IC50 [20]: > 100 µM (inactive)
EC50 [21]: 28.5 µM (active)

IC50 [22]: 45.1 µM (active)
IC50 [23]: > 100 µM (inactive)
IC50 [24]: > 100 µM (inactive)
IC50 [25]: 0.465 µM (active)
IC50 [26]: > 100 µM (inactive)
IC50 [27]: > 100 µM (inactive)
SMILES: O=C(O)COc1ccc(Nc2ccccc2)cc1
